The source of these data is article PMC10600239, “Selective MCL-1 inhibitor ABBV-467 is efficacious in tumor models but is associated with cardiac troponin increases in patients” (Communications Medicine, 2023).

The assay deals with AMO-1 cells. In words: In vitro cell viability assay (CellTiter-Glo). The class given is cell-based, human. Further details: Cell viability after compound washout (CellTiter-Glo): scale not given here. The note with it: for Cell viability after compound washout (CellTiter-Glo): AMO-1, replicates. The procedure: All cell lines were grown and treated in RPMI 1640 or Dulbecco’s modified Eagle medium (Sigma, St. Louis, MO) supplemented with 10% fetal bovine serum (Gibco) or 10% human serum (Sigma) and maintained in a humidified incubator at 5% CO2 and 37 °C. DLD-1, MV4-11, NCI-H929 (all ATCC, Manassas, VA, USA) and AMO-1 (DSMZ, Braunschweig, Germany) cells were plated 4000 cells per well in 384-well tissue culture plates and treated with compounds of interest for 24 h at 37 °C, 5% CO2 humidified incubator. Each concentration was tested in duplicate at least 3 separate times. Adherent cells were allowed to adhere overnight prior to treatment. Alternatively, AMO-1 or NCI-H929 cells were treated with ABBV-467 for the indicated contact times (1–24 h) at 37 °C in a 5% CO2 humidified incubator and washed 3 times with compound-free media prior to incubation for the remainder of a 24-h treatment period. Cell viability was subsequently determined using CellTiter-Glo (Promega, Madison, WI, USA) according to the manufacturer’s instructions.
For in vitro viability assays, mean EC50 and EC90 values were determined from the resulting dose-response curves from at least 3 independent experiments, and depict the mean ± standard error of the mean.
Fig. 2 Apoptosis induced by ABBV-467 is mechanism based and induces cell death in MCL-1-dependent cell lines after short target engagement periods. H929 cells were treated with ABBV-467 in the presence or absence of the pan-caspase inhibitor z-VAD-fmk (50 µM) and the impact on caspase-3/7 activation (a), mitochondrial membrane potential (ΔΨm; b), and apoptosis (c) determined. Alternatively, BAK-deficient SKBR3 cells were treated with ABBV-467 for 24 h and the impact on cell viability compared with the parental cell line, determined by CellTiter-Glo. Inset depicts a western blot of BAK and BAX expression in SKBR3 cell variants using GAPDH as a loading control. Each of the 3 proteins were probed on separate blots (d). Data in (a–d) are presented as the mean ± standard error of the mean. H929 and AMO-1 cells were treated with ABBV-467 at the indicated concentrations and the impact on caspase-3/7 activation and viability (DRAQ7-positive) cells determined over time by Incucyte®. Data are presented as the mean ± standard deviation (e). H929 or AMO-1 cells were cultured in media containing 10% human serum and treated with ABBV-467 for the indicated contact times. Cells were subsequently washed 3 times with drug-free media and incubated in drug-free media for the remainder of the 24-h treatment period at 37 °C before cell viability was determined by CellTiter-Glo. Mean EC50 and EC90 values were determined from the resulting dose-response curves from at least 3 independent experiments, each assessed in quadruplicate, and depict the mean ± standard error of the mean. Presented ABBV-467 dose-response curves in H929 and AMO-1 cells were compiled from at least 3 independent experiments (f).
For orientation: In ATP-based viability assays light output follows the ATP content of the culture.

The EC50 is the concentration at which the effect is half-maximal. As a reminder, the EC90 is the point of the concentration-response curve where the effect stands at 90%.

Several values for one entry are separate records, joined by “and”; a condition that tells them apart may be missing. Equal entries are not always repeated. Where two headings read alike, the source gives them in different places.

As to `Cc1c(Cl)c2c(Cl)c(C)c1-c1c(-c3ccc(F)cc3)sc3ncnc(c13)O[C@@H](C(=O)O)Cc1cc(ccc1OCc1ccnc(-c3ccc(OC[C@H]4COCCO4)cc3)n1)OC[C@@H](CN1CCN(C)CC1)O2` [ABBV-467], the EC50 by setting is: (AMO-1, individual determinations, read-out: Individual EC50) 0.224 nM and 0.216 nM and 0.212 nM and 0.145 nM and 0.159 nM and 0.131 nM and 0.106 nM and 0.0956 nM and 0.0874 nM and 0.217 nM and 0.188 nM; (Homo sapiens, AMO1, 10% human serum, contact time 1 hr, washout, viability at 24 h, read-out: AMO-1 Mean EC50) 31.9 nM; (Homo sapiens, AMO1, 10% human serum, contact time 2 hr, washout, viability at 24 h, read-out: AMO-1 Mean EC50) 27.1 nM; (Homo sapiens, AMO1, 10% human serum, contact time 4 hr, washout, viability at 24 h, read-out: AMO-1 Mean EC50) 17.4 nM; (Homo sapiens, AMO1, 10% human serum, contact time 6 hr, washout, viability at 24 h, read-out: AMO-1 Mean EC50) 9.4 nM; (Homo sapiens, AMO1, 24 h, 10% human serum, contact time 24 hr, read-out: AMO-1 Mean EC50) 0.7 nM. The concentration giving a half-maximal response (EC50) (Homo sapiens, AMO1, 24 h, read-out: AMO-1 EC50 (nM, 10% FBS), 10% FBS, 24 h continuous treatment) turned out to be 0.1 nM; the concentration giving a half-maximal response (EC50) (Homo sapiens, AMO1, AMO-1, arithmetic mean, read-out: Arithmetic Mean EC50 nM) came to 0.15 nM; the EC50 (Homo sapiens, AMO1, AMO-1, arithmetic mean, read-out: Arithmetic Mean EC50 µM) stood at 0.155 nM; the 50% effective concentration (EC50) (Homo sapiens, AMO1, read-out: Individual EC50 µM, AMO-1, individual determinations) is 0.112 nM; the EC50 (read-out: AMO-1 EC50 (nM, 10% FBS), 10% FBS, 24 h continuous treatment) came to 0.16 nM; the EC50 (read-out: Individual EC50 µM, AMO-1, individual determinations) worked out at 0.122 nM. Further, the “Cell viability after compound washout (CellTiter-Glo)” value is, setting by setting: (2hr + 22hr, Log Conc 1) 0.4281 and 0.471 and 0.3421 and 0.36 and 0.84 and 0.79 and 0.71 and 0.8 and 2.671 and 3.13 and 2.51 and 2.629; (c49-c56, head empty, Log Conc 0.39794) 0.4. For the same compound, the concentration for an effect of 90% (EC90) is, setting by setting: (Homo sapiens, AMO1, 10% human serum, contact time 2 hr, washout, viability at 24 h) 174 nM; (Homo sapiens, AMO1, 10% human serum, contact time 4 hr, washout, viability at 24 h) 141 nM; (Homo sapiens, AMO1, 10% human serum, contact time 6 hr, washout, viability at 24 h) 114 nM; (Homo sapiens, AMO1, 24 h, 10% human serum, contact time 24 hr) 6.7 nM.
